Assay results reported in ChEMBL document CHEMBL1145152, “Design, synthesis, and antifolate activity of new analogues of piritrexim and other diaminopyrimidine dihydrofolate reductase inhibitors with omega-carboxyalkoxy or omega-carboxy-1-alkynyl substitution in the side chain” (J Med Chem, 2005).

Key:
[1] = Selectivity index measured as IC50(Rat)/IC50(Mycobacterium avium)
[2] = biological target: T1, Bifunctional dihydrofolate reductase-thymidylate synthase (Toxoplasma gondii, UniProt Q07422)
T1 sequence (Q07422 whole entry): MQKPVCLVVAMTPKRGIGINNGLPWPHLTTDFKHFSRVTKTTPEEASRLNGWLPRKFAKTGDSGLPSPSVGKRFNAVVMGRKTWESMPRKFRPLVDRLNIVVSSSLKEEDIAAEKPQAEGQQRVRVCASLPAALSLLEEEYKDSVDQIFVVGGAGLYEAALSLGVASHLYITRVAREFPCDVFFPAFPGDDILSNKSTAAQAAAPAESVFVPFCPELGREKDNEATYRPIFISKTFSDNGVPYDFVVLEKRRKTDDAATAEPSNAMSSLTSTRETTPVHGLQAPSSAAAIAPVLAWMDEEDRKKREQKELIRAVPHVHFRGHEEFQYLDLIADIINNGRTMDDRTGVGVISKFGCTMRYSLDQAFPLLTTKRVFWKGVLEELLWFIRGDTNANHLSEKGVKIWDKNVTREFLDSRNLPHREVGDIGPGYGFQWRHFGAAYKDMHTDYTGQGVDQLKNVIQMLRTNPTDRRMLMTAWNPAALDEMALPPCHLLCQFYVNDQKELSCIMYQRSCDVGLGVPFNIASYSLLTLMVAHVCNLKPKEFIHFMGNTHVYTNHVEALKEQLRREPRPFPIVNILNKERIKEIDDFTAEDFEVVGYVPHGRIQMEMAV
Description: Inhibitory concentration against Toxoplasma gondii DHFR

Dihydrofolate reductase [3] = biological target: T2, Dihydrofolate reductase (Rattus norvegicus, UniProt Q920D2)
T2 sequence (Q920D2 whole entry): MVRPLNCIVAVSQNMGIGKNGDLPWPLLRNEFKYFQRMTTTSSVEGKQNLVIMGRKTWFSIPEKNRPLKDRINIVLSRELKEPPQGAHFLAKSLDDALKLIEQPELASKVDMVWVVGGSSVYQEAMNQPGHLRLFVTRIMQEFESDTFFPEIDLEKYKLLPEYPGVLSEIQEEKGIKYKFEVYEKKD
Description: Inhibitory concentration against rat DHFR

Dihydrofolate reductase [4] = biological target: T3, Dihydrofolate reductase (Mycobacterium avium, UniProt O30463)
T3 sequence (O30463 whole entry): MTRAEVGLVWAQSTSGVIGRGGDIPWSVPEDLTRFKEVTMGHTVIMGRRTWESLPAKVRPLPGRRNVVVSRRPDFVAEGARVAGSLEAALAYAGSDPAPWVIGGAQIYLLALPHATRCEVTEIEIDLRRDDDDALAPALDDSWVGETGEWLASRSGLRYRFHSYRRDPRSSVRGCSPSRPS
Description: Inhibitory concentration against Mycobacterium avium DHFR

Dihydrofolate reductase [5] = biological target: T4, Dihydrofolate reductase (Pneumocystis carinii, UniProt P16184)
T4 sequence (P16184 whole entry): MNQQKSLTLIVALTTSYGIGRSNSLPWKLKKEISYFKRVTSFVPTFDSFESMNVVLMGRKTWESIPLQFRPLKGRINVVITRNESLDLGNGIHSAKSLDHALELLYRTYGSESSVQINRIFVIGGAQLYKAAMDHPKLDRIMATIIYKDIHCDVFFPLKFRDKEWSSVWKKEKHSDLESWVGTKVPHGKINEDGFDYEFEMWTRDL
Description: Inhibitory concentration against Pneumocystis carinii DHFR

[6] = Concentration causing inhibition of CCRF-CEM human leukemic lymphoblasts growth in 72 hr culture; assay type: functional, cell-based
[7] = Concentration causing inhibition of CCRF-CEM human leukemic lymphoblasts growth in a 72 hr culture; assay type: functional, cell-based

## Nc1nc(N)c2nc(CN3c4ccccc4C=Cc4c(C#CCCCC(=O)O)cccc43)cnc2n1
[1]
  Selectivity index: 210
[2]
  IC50: 21 nM
Dihydrofolate reductase [3]
  IC50: 1300 nM
Dihydrofolate reductase [4]
  IC50: 6.3 nM
Dihydrofolate reductase [5]
  IC50: 12 nM

## COc1ccc(OCCCCCC(=O)O)cc1Cc1cnc2nc(N)nc(N)c2c1C
[1]
  Selectivity index: 5.9
[2]
  IC50: 2 nM
Dihydrofolate reductase [3]
  IC50: 2 nM
Dihydrofolate reductase [4]
  IC50: 0.35 nM
Dihydrofolate reductase [5]
  IC50: 1.3 nM

## Nc1nc(N)c2nc(CN3c4ccccc4C=Cc4c(C#CCCC(=O)O)cccc43)cnc2n1
[1]
  Selectivity index: 190
[2]
  IC50: 77 nM
Dihydrofolate reductase [3]
  IC50: 560 nM
Dihydrofolate reductase [4]
  IC50: 2.9 nM
Dihydrofolate reductase [5]
  IC50: 230 nM

## COc1ccc(OCCCC(=O)O)c(Cc2cnc3nc(N)nc(N)c3c2C)c1
[6]
  IC50: 5300 nM
[1]
  Selectivity index: 28
[2]
  IC50: 2.3 nM
Dihydrofolate reductase [3]
  IC50: 9.1 nM
Dihydrofolate reductase [4]
  IC50: 0.32 nM
Dihydrofolate reductase [5]
  IC50: 0.17 nM

## CCOC(=O)CCCCOc1ccc(OC)c(Cc2cnc3nc(N)nc(N)c3c2C)c1
[1]
  Selectivity index: 1.5
[2]
  IC50: 11 nM
Dihydrofolate reductase [3]
  IC50: 14 nM
Dihydrofolate reductase [4]
  IC50: 9.4 nM
Dihydrofolate reductase [5]
  IC50: 28 nM

## COc1ccc(OCc2ccccc2)c(Cc2cnc3nc(N)nc(N)c3c2C)c1
[1]
  Selectivity index: 20
[2]
  IC50: 16 nM
Dihydrofolate reductase [3]
  IC50: 170 nM
Dihydrofolate reductase [4]
  IC50: 8.6 nM
Dihydrofolate reductase [5]
  IC50: 96 nM

## COc1ccc(C#CCCCCC(=O)O)cc1Cc1cnc2nc(N)nc(N)c2c1C
[1]
  Selectivity index: 5.8
[2]
  IC50: 3.2 nM
Dihydrofolate reductase [3]
  IC50: 4 nM
Dihydrofolate reductase [4]
  IC50: 0.69 nM
Dihydrofolate reductase [5]
  IC50: 1.8 nM

## CCOC(=O)CCCCCOc1ccc(OC)c(Cc2cnc3nc(N)nc(N)c3c2C)c1
[1]
  Selectivity index: 1.8
[2]
  IC50: 13 nM
Dihydrofolate reductase [3]
  IC50: 21 nM
Dihydrofolate reductase [4]
  IC50: 12 nM
Dihydrofolate reductase [5]
  IC50: 35 nM

## COc1ccc(I)cc1Cc1cnc2nc(N)nc(N)c2c1C
[1]
  Selectivity index: 5.4
[2]
  IC50: 4.1 nM
Dihydrofolate reductase [3]
  IC50: 5 nM
Dihydrofolate reductase [4]
  IC50: 0.92 nM
Dihydrofolate reductase [5]
  IC50: 5.8 nM

## CCOC(=O)CCCOc1ccc(OC)cc1Cc1cnc2nc(N)nc(N)c2c1C
[1]
  Selectivity index: 17
[2]
  IC50: 10 nM
Dihydrofolate reductase [3]
  IC50: 93 nM
Dihydrofolate reductase [4]
  IC50: 5.6 nM
Dihydrofolate reductase [5]
  IC50: 83 nM

## COc1ccc(OCCCCC(=O)O)cc1Cc1cnc2nc(N)nc(N)c2c1C
[1]
  Selectivity index: 7.5
[2]
  IC50: 2.3 nM
Dihydrofolate reductase [3]
  IC50: 2.2 nM
Dihydrofolate reductase [4]
  IC50: 0.29 nM
Dihydrofolate reductase [5]
  IC50: 0.51 nM

## COc1ccc(OC)c(Cc2cnc3nc(N)nc(N)c3c2C)c1 [PIRITREXIM]
[7]
  IC50: 13 nM

## COc1ccc(C#CCCC(=O)O)cc1Cc1cnc2nc(N)nc(N)c2c1C
[1]
  Selectivity index: 5.6
[2]
  IC50: 0.46 nM
Dihydrofolate reductase [3]
  IC50: 0.32 nM
Dihydrofolate reductase [4]
  IC50: 0.057 nM
Dihydrofolate reductase [5]
  IC50: 0.097 nM

## COc1ccc(I)c(Cc2cnc3nc(N)nc(N)c3c2C)c1
[1]
  Selectivity index: 2.2
[2]
  IC50: 5.8 nM
Dihydrofolate reductase [3]
  IC50: 4 nM
Dihydrofolate reductase [4]
  IC50: 1.8 nM
Dihydrofolate reductase [5]
  IC50: 3.8 nM

## CCOC(=O)CCCOc1ccc(OC)c(Cc2cnc3nc(N)nc(N)c3c2C)c1
[1]
  Selectivity index: 2.3
[2]
  IC50: 3.4 nM
Dihydrofolate reductase [3]
  IC50: 4.2 nM
Dihydrofolate reductase [4]
  IC50: 1.8 nM
Dihydrofolate reductase [5]
  IC50: 6.5 nM

## COc1cc(Cc2cnc(N)nc2N)cc(C#CCCC(=O)O)c1Br
[1]
  Selectivity index: 1300
[2]
  IC50: 15 nM
Dihydrofolate reductase [3]
  IC50: 630 nM
Dihydrofolate reductase [4]
  IC50: 0.47 nM
Dihydrofolate reductase [5]
  IC50: 71 nM

## COc1ccc(C#CCCCC(=O)O)cc1Cc1cnc2nc(N)nc(N)c2c1C
[7]
  IC50: 6100 nM
[1]
  Selectivity index: 5.6
[2]
  IC50: 4.3 nM
Dihydrofolate reductase [3]
  IC50: 5.7 nM
Dihydrofolate reductase [4]
  IC50: 1 nM
Dihydrofolate reductase [5]
  IC50: 1.4 nM

## COc1ccc(OCCCC(=O)O)cc1Cc1cnc2nc(N)nc(N)c2c1C
[6]
  IC50: 3700 nM
[1]
  Selectivity index: 8.5
[2]
  IC50: 1.9 nM
Dihydrofolate reductase [3]
  IC50: 2.2 nM
Dihydrofolate reductase [4]
  IC50: 0.26 nM
Dihydrofolate reductase [5]
  IC50: 0.43 nM

## COc1ccc(C#CCCCC(=O)O)c(Cc2cnc3nc(N)nc(N)c3c2C)c1
[6]
  IC50: 2800 nM
[1]
  Selectivity index: 18
[2]
  IC50: 5.8 nM
Dihydrofolate reductase [3]
  IC50: 24 nM
Dihydrofolate reductase [4]
  IC50: 1.3 nM
Dihydrofolate reductase [5]
  IC50: 1.2 nM

## COc1ccc(C#CCCC(=O)O)c(Cc2cnc3nc(N)nc(N)c3c2C)c1
[1]
  Selectivity index: 96
[2]
  IC50: 4.1 nM
Dihydrofolate reductase [3]
  IC50: 55 nM
Dihydrofolate reductase [4]
  IC50: 0.57 nM
Dihydrofolate reductase [5]
  IC50: 0.65 nM
